Laboratory results: patent US7439253B2, “Heterocyclic compounds, their preparation and their use as medicaments, in particular as antibacterials and beta-lactamase inhibitors” (Novexel, priority 2002, dated 2008)
Where a name gives a salt, the structure may show the parent alone. Read-outs that look alike come from different tables or passages of the source.

Columns and labels:
[1] = target: T1, β-lactamase TEM1 (Escherichia coli, UniProt P62593); test: β-lactamase inhibiting activity (Nitrocefin hydrolysis); assay type: biochemical, E. coli 250HT21
T1 construct: The β-lactamases are isolated from bacterial strains resistant to penicillins and to cephalosporins; endogenous in cells; host or cells: E. coli 250HT21 (soluble fraction of French-press lysate, 100 000 G supernatant)
T1 sequence (P62593 24-286 limits assumed): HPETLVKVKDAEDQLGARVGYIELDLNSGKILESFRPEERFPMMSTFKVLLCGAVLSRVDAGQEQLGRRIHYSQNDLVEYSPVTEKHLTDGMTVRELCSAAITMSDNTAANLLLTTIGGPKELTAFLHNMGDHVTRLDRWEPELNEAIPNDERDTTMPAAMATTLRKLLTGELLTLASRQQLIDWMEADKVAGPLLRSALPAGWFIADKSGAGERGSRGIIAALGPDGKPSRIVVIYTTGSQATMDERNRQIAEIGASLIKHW
Procedure: (§1) A. Preparation of the β-lactamases Tem˜1 and P99
(§2) The β-lactamases are isolated from bacterial strains resistant to penicillins and to cephalosporins (Tem1 and P99 are produced by E. coli 250HT21 and E. Cloacae 293HT6, respectively).
(§3) The bacteria are cultured in heart-brain broth at 37 g/l (DIFCO), at 37° C. They are harvested at the end of the exponential phase, cooled and centrifuged. The bacterial pellets are taken up in 50 mM sodium phosphate buffer pH 7.0 and again centrifuged. The bacteria are taken up in two volumes of this same buffer and lyzed by means of a French-Press kept at 4° C. After centrifugation for 1 h at 100 000 G, at 4° C., the supernatants containing the soluble fraction of the bacterial extracts are recovered and frozen at −80° C.
(§4) B. Determination of the β-lactamase Activity
(§5) The method uses, as substrate, Nitrocefin (OXOID), a chromogenic cephalosporin, whose product of hydrolysis by Beta-lactamases is red and absorbs at 485 nm. The β-lactamase activity is kinetically determined by measuring the variation in absorbance at 485 nm resulting from the hydrolysis of the substrate on a plate spectrophotometer (Spectra Max Plus from Molecular Devices). The experiments are performed at 37° C. The quantity of enzyme was normalized and the measurements are performed at the initial speed.
(§6) C. Determination of the β-lactamase Inhibiting Activity
(§7) Two measurements are carried out, without preincubation and with preincubation of the enzyme and of the inhibitor (5 min), in order to test the irreversibility of the reaction. The products are tested at 6 or 8 concentrations in duplicate. The reaction mixture contains 100 μM of Nitrocefin and 50 mM sodium phosphate buffer pH 7.0. D. Calculations of the IC50 Values
(§8) The rates of hydrolysis are measured with and without inhibitor. The concentration of inhibitor which inhibits by 50% the reaction of hydrolysis of Nitrocefin by the enzyme (IC50) is determined. The data processing is carried out with the aid of the GraFit software (Erathycus Software).

[2] = target: T2, β-lactamase P99 (Enterobacter cloacae, UniProt P05364); test: biochemical; assay type: biochemical; conditions: 100 μM Nitrocefin, 50 mM sodium phosphate buffer pH 7.0, 37° C.
T2 construct: The β-lactamases are isolated from bacterial strains resistant to penicillins and to cephalosporins; endogenous in cells; host or cells: E. cloacae 293HT6 (soluble fraction of French-press lysate, 100 000 G supernatant)
T2 sequence (P05364 21-381): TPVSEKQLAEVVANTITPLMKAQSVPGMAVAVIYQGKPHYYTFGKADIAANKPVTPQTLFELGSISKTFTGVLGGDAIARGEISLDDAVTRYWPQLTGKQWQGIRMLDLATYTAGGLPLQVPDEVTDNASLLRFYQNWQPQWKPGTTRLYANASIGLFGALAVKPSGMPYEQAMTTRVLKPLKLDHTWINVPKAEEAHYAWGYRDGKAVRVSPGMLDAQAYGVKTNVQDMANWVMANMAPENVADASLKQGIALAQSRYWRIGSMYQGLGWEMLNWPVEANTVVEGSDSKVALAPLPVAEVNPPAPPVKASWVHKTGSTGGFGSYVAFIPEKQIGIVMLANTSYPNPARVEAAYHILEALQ
Procedure: as §1, §2, §3, §4, §5, §6, §7, §8

[3] = 100 μM Nitrocefin, 50 mM sodium phosphate buffer pH 7.0, 37° C., read-out: IC50 nM/TEM1

SMILES	IC50 [1] [nM]	IC50 [2] [nM]	IC50 [1, 3] [nM]
NC(=O)C1c2nn(-c3ccccc3)cc2C2CN1C(=O)N2OS(=O)(=O)O (stereo not drawn) [Example 45, Sodium Salt of trans-2,5,6,8-tetrahydro-6-oxo-2-phenyl-5-(sulfoxy)-4H-4,7-methanopyrazolo[3,4-e][1,3]diazepine-8-carboxamide]	1	12	
COC(=O)C1c2sc(-c3ccc(F)cc3)cc2C2CN1C(=O)N2OS(=O)(=O)O (stereo not drawn) [Example 19, Sodium Salt of Methyl Trans-2-(4-fluorophenyl)-4,5,6,8-tetrahydro-6-oxo-5-(sulfoxy)-4,7-methano-7H-thieno[2,3-e][1,3]diazepine-8-carboxylate]	5	16	
CCOC(=O)C1c2ccc(OC(=O)Nc3ccccc3)cc2C2CN1C(=O)N2OS(=O)(=O)O (stereo not drawn) [Example 37, Sodium Salt of Ethyl Trans-1,2,3,5-tetrahydro-3-oxo-8-[[(phenylamino)carbonyl]oxy]-2-(sulfoxy)-1,4-methano-4H-2,4-benzodiazepine-5-carboxylate]	41	21	
NC(=O)[C@H]1c2ccc(OCCOS(=O)(=O)O)cc2[C@@H]2CN1C(=O)N2OS(=O)(=O)O (relative stereo) [Example 41, Disodium Salt of trans-1,2,3,5-tetrahydro-3-oxo-2-(sulfoxy)-8-[2-(sulfoxy)ethoxy]-1,4-methano-4H-2,4-benzodiazepine-5-carboxamide]		29	9
COC(=O)[C@@H]1c2nn(Cc3ccccc3)cc2[C@H]2CN1C(=O)N2OS(=O)(=O)O (relative stereo) [Example 1, triethylammonium salt of methyl trans-2,5,6,8-tetrahydro-6-oxo-2-(phenylmethyl)-5-(sulfoxy)-4H-4,7-methanopyrazolo[3,4-e][1,3]diazepine-8-carboxylate]		5	3
O=C1N2Cc3c(cnn3-c3ccccc3)C(C2)N1OS(=O)(=O)O (centres unmarked) [Example 46, Sodium Salt of 1,4,5,8-tetrahydro-1-phenyl-5-(sulfoxy)-6H-4,7-methanopyrazolo[3,4-e][1,3]diazepin-6-one]	5	80	
COCCOCOc1ccc2c(c1)[C@@H]1CN(C(=O)N1OS(=O)(=O)O)[C@H]2C(=O)NOC (relative stereo) [Example 33, Sodium Salt of Trans-1,2,3,5-tetrahydro-N-methoxy-8-[(2-methoxyethoxy)methoxy]-3-oxo-2-(sulfoxy)-1,4-methano-4H-2,4-benzodiazepine-5-carboxamide]		17	56
COC(=O)[C@@H]1c2c(cnn2C(N)=O)[C@@H]2CN1C(=O)N2OS(=O)(=O)O (relative stereo) [Example 10, Pyridinium Salt of Methyl Trans-1-(aminocarbonyl)-4,5,6,8-tetrahydro-6-oxo-5-(sulfoxy)-1H-4,7-methanopyrazolo[3,4-e][1,3]diazepine-8-carboxylate]	12	18	
Cc1ccccc1-c1cc2c(s1)[C@@H](C(N)=O)N1C[C@H]2N(OS(=O)(=O)O)C1=O (relative stereo) [Example 24, Sodium Salt of Trans-4,5,6,8-tetrahydro-2-(2-methylphenyl)-6-oxo-5-(sulfoxy)-4,7-methano-7H-thieno[2,3-e][1,3]diazepine-8-carboxamide]		10	2
CCNC(=O)Oc1ccc2c(c1)[C@@H]1CN(C(=O)N1OS(=O)(=O)O)[C@H]2C(=O)OCC (relative stereo) [Example 38, Sodium Salt of Ethyl Trans-8-[[(ethylamino)carbonyl]oxy]-1,2,3,5-tetrahydro-3-oxo-2-(sulfoxy)-1,4-methano-4H-2,4-benzodiazepine-5-carboxylate]		19	59
